The experiment concerns the target TMV-CP (tobacco mosaic virus coat protein) (Tobacco mosaic virus (vulgare), UniProt P69687). Kind of experiment: microscale thermophoresis. It is filed as binding. (MST reads how a fluorescent partner responds to local heating, with and without ligand.)

Chain of TMV-CP (tobacco mosaic virus coat protein) (P69687 2-159 limits assumed): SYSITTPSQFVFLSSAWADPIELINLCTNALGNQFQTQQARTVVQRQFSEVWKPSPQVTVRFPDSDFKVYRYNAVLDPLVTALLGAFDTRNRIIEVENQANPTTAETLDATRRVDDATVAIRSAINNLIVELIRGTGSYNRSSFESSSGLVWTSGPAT

The term Kd denotes a measure of binding affinity in units of concentration. A high value points to a looser complex. In turn, `O=c1c(O)c(-c2cc(O)c(O)c(O)c2)oc2cc(O)cc(O)c12` [myricetin, 3,5,7-trihydroxy-2-(3′,4′,5′-trihydroxyphenyl)-4H-chromen-4-one] yielded a Kd of 62.2 ± 22.2 µM.
